Source: US10323043B2, “Derivatives of macrocyclic N-aryl-tricyclopyrimidine-2-amine polyethers as inhibitors of FTL3 and JAK” (PIERRE FABRE MEDICAMENT, priority 2014, dated 2019)

How the values were obtained:
[1] = target: T1, JAK3 (Homo sapiens, UniProt P52333); test: LanthaScreen TR-FRET binding test, JAK3; details: recombinant JAK3 15 nM, kinase tracer 236 3 nM, 25° C., 1 hour; read-out: Inhibition (IC50) of JAK3 enzyme
T1 construct: purchased Life Technologies PV3855
T1 sequence (P52333 1-1124): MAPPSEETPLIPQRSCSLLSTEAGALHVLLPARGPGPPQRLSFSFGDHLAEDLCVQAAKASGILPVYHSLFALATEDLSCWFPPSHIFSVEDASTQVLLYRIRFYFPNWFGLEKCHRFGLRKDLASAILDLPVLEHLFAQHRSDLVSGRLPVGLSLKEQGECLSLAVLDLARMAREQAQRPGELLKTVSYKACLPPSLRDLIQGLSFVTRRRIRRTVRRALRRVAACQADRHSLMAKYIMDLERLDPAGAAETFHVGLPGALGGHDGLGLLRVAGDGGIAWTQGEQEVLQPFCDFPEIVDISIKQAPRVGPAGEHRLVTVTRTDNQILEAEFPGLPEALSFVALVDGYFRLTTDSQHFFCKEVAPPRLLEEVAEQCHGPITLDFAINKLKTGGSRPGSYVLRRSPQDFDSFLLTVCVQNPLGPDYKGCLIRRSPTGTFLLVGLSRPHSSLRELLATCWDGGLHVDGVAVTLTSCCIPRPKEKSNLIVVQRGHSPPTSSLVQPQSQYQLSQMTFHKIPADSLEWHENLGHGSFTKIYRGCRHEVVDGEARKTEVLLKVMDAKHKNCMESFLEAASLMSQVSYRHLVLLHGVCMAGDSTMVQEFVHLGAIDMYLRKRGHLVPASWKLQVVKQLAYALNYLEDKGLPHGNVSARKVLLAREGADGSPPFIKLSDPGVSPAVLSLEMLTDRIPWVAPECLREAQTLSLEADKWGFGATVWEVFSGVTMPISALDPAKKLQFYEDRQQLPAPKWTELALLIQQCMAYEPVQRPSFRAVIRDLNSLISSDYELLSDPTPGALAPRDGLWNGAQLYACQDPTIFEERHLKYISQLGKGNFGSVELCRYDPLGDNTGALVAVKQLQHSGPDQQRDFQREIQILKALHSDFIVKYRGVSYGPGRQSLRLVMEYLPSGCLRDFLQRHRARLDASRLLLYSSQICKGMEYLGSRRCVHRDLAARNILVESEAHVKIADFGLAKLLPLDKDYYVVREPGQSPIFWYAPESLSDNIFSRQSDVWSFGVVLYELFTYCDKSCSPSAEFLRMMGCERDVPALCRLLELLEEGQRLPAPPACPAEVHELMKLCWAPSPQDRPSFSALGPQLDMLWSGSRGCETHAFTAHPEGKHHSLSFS
Experimental: FLT3 (#PV3182), JAK2 (#PV4210) and JAK3 (#PV3855) recombinant enzymes were purchased from Life Technologies. FLT3-ITD (#0778-0000-1) and FLT3^D835Y (#14-610) proteins were purchased from ProQinase and Merck Millipore, respectively. All the tests were carried out in 384-well plates. The principle of these binding tests is based on the LanthaScreen® TR-FRET methodology from Life Technologies.
The reaction mixture (15 μL total volume) contains the following compounds: 15 nM JAK2 or JAK3, 150 nM kinase tracer 236 (Life Technologies, #PV5592) for JAK2 or 3 nM for JAK3 and 6 nM LanthaScreen® anti-GST antibody coupled to a europium chelate (Life Technologies, #PV5594) for both enzymes.
The compounds are evaluated at 8 different concentrations prepared by making dilutions from a starting 10 mM stock solution in dimethylsulfoxide (DMSO) (Sigma, #D8418). The final DMSO concentration in the test is 1%. The reaction is carried out at 25° C. for 1 hour and detected on the EnVision® reader (Perkin Elmer) according to the recommendations of the supplier, Life Technologies.
The results are presented (Table 1) as the concentration values of the compound at which 50% of the kinase activity is inhibited, IC50 (μM), generated using the PRISM software (GraphPad).

[2] = tested on: MV4-11 cell line; test: Antiproliferative activity (ATPLite cell viability), MV4-11; assay type: cell-based; details: Homo sapiens, MV4-11 (acute myeloid leukemia, FLT3-ITD), 72 h incubation, read-out: Cytotoxicity (EC50) on MV411 cell line
Experimental: The characteristics of the cell lines used are as follows (Table 2):
MV4-11 and MOLM-13 cell lines are cultured in the culture medium specified in Table 2 above and according to the supplier's recommendations. The tests are carried out in 96-well plates. The cells are divided in two at D0. At D1, they are seeded and treated with the compounds at various concentrations and incubated for 72 h at 37° C. and 5% CO2. The dilution of the compounds from stock solutions in DMSO (Sigma, #D8418) was made semi-logarithmically for a final concentration in the culture medium of 0.1%. At day 4, cell viability is evaluated by assaying the ATP released by the living cells using the ATPLite® kit (Perkin Elmer, #6016947). The EC50 values (concentration of the compound necessary to obtain 50% of the maximum effect) are calculated using curve-fitting software.

SMILES	IC50 [1] [nM]	EC50 [2] [nM]
c1cc(OCCN2CCCC2)c2cc1Nc1ncc3c(n1)-c1cc(ccc1CC3)OCCOCCO2 [Compound 14]	70	9.2
CN1CCN(c2ccc3cc2OCCOCCOc2ccc4c(c2)-c2nc(ncc2CC4)N3)CC1(C)C [Compound 40]	17.6	21
c1cc(N2CCC(N3CCOCC3)C2)c2cc1Nc1ncc3c(n1)-c1cc(ccc1CC3)OCCOCCO2 (stereo not drawn) [Compound 7]	120	40
c1cc(N2CCC(N3CCCCC3)CC2)c2cc1Nc1ncc3c(n1)-c1cc(ccc1CC3)OCCOCCO2 [Compound 10]	60	6.5
c1cc(N2CC3CCC(C2)N3)c2cc1Nc1ncc3c(n1)-c1cc(ccc1CC3)OCCOCCO2 [Compound 42]	13	3
OC1CCN(c2ccc3cc2OCCOCCOc2ccc4c(c2)-c2nc(ncc2CC4)N3)CC1 [Compound 19]	30	12
CN1CC=C(c2ccc3cc2OCCOCCOc2ccc4c(c2)-c2nc(ncc2CC4)N3)CC1 [Compound 23]	110	20
CN1CCN(c2ccc3cc2OCCOCCOc2ccc4c(c2)-c2nc(ncc2CC4)N3)CC1 [Compound 3]	54	2.8

Second part, led by results:

IC50 [1] [nM]	SMILES	EC50 [2] [nM]
18	c1cc(N2CC3CNCC3C2)c2cc1Nc1ncc3c(n1)-c1cc(ccc1CC3)OCCOCCO2 (stereo not drawn) [Compound 29]	7.6
30	c1cc(N2CCNCC2)c2cc1Nc1ncc3c(n1)-c1cc(ccc1CC3)OCCOCCO2 [Compound 5]	7.2
35	c1cc(N2C[C@H]3C[C@@H]2CN3)c2cc1Nc1ncc3c(n1)-c1cc(ccc1CC3)OCCOCCO2 [Compound 44]	10
18	CN(C)C1CCN(c2ccc3cc2OCCOCCOc2ccc4c(c2)-c2nc(ncc2CC4)N3)C1 (stereo not drawn) [Compound 30]	12
